Experimental data from paper PMC5187884, “In Vitro Antitumor Active Gold(I) Triphenylphosphane Complexes Containing 7-Azaindoles” (International Journal of Molecular Sciences, 2016).

Columns and labels:
[1] = test system: A2780 cells with acquired resistance to cisplatin; parameters: method as in PMID 22322463; settings: cited from earlier work
[2] = test system: A549 human lung carcinoma cells; parameters: method as in PMID 24763048; settings: as compared with untreated cells; cited from earlier work
[3] = test system: A2780 cells; parameters: method as in PMID 22322463; settings: cited from earlier work
[4] = test system: U266 human myeloma cells; parameters: method as in PMID 20542334; settings: cited from earlier work
[5] = test system: MRC-5 normal fibroblast cell line; assay: In vitro cytotoxicity testing (MTT assay), MRC-5; type: cell-based, human; settings: 24 h exposure time; for IC50: MTT assay, read-out: IC50 ± SD, MRC5
Protocol: (§1) The cell lines were cultured, according to the supplier´s instructions, in RPMI-1640 medium supplemented with 10% of fetal calf serum, 1% of 2 mM glutamine, and 1% penicillin/streptomycin. All cell lines were grown as adherent monolayers at 37 °C and 5% CO2 in a humidified atmosphere.

[6] = test system: A2780R cisplatin-resistant ovarian carcinoma cell line; assay: In vitro cytotoxicity testing (MTT assay), A2780R; type: cell-based, human; settings: 24 h exposure time; for IC50: MTT assay, read-out: IC50 ± SD, A2780R
Protocol: as §1

[7] = test system: A2780 human ovarian carcinoma cell line; assay: In vitro cytotoxicity testing (MTT assay), A2780; type: cell-based; settings: 24 h exposure time; for IC50: MTT assay, read-out: IC50 ± SD, A2780
Protocol: as §1, with “Human A2780 ovarian carcinoma, A2780R cisplatin-resistant ovarian carcinoma and MRC-5 normal fibroblast cell lines were supplied by the European Collection of Cell Cultures (ECACC). The” for “The”

[8] = test system: A2780 human ovarian carcinoma cells; assay: Cell cycle analysis by flow cytometry (PI/RNase staining); type: cell-based; settings: A2780 cells treated at IC50 concentration, 24 h; for S cell cycle phase population: control 9.0% ± 1.9%; for G2 cell cycle phase population: control 24.0% ± 2.6%; for G0/G1 cell cycle phase population: control 66.3% ± 3.8%
Protocol: The obtained results are depicted in Figure 4.
A2780 cells (1.0 × 10^6 per well) were pre-incubated in a six-well plate for 24 h, as described above. […] After 24 h, floating cells were collected and attached cells were harvested using trypsin/EDTA in PBS. Total cells were washed twice with PBS and fixed in 70% ethanol. Cells were resuspended in PBS and DNA staining was achieved by a solution of propidium iodide (PI) supplemented with RNase A (30 min, 25 °C, in the dark). After that, the cells were washed (PBS), resuspended (PBS), and DNA content was measured using flow cytometry (CytoFlex, Beckman Coulter, Brea, CA, USA) detecting emission of DNA-bound PI (maximum at 617 nm) after excitation at 535 nm. The data were analysed using CytExpert^TM software (Beckman Coulter).

[9] = Solubility
[10] = Stability in DMF-d7 (1H and 31P-NMR); type: physicochemical; settings: 1H-NMR and 31P-NMR, ambient temperature
[11] = Solution behaviour in water/DMF mixture (1H and 31P-NMR); type: physicochemical; settings: 50% DMF-d7/50% D2O, ca. 1 mM, 48 h at ambient temperature
Protocol: Only one set of ^1H-NMR signals (e.g., C3–H signal at 6.50 ppm) and one ^31P-NMR signal (34.8 ppm) were detected on the fresh solution, and no changes were observed even after 48 h of standing at ambient temperature. The positions of the ^1H and ^31P-NMR signals detected on the solution of 8 in the 50% DMF-d7/50% D2O mixture were different from those of free H2Me4Claza (C3–H signal at 6.32 ppm; Figure 3), PPh3 (^31P-NMR signal at −4.7 ppm), the oxidized triphenylphosphane (O=PPh3; ^31P-NMR signal at 32.4 ppm) or [AuCl(PPh3)] (^31P-NMR signal at 34.2 ppm) dissolved in the same mixture of solvents (Figure S6).
(§2) Complex 8 and [AuCl(PPh3)] […] Similar solutions were prepared with 1 or 5 mol equivs of GSH, Cys, or BSA. ^1H and ^31P-NMR spectra were recorded at different time points over 48 h at 300 K. The obtained ^1H-NMR spectra were calibrated against the residual signal of water found at 4.75 ppm, while the ^31P-NMR spectra were referenced as described above.

[12] = target: T1, bovine serum albumin (BSA) (Bos taurus, UniProt P02769); assay: Interaction study with bovine serum albumin (NMR); settings: 50% DMF-d7/50% D2O
T1 construct: purchased Sigma-Aldrich Co. (Prague, Czech Republic) and Fisher-Scientific Co. (Pardubice, Czech Republic)
T1 sequence (P02769 25-607): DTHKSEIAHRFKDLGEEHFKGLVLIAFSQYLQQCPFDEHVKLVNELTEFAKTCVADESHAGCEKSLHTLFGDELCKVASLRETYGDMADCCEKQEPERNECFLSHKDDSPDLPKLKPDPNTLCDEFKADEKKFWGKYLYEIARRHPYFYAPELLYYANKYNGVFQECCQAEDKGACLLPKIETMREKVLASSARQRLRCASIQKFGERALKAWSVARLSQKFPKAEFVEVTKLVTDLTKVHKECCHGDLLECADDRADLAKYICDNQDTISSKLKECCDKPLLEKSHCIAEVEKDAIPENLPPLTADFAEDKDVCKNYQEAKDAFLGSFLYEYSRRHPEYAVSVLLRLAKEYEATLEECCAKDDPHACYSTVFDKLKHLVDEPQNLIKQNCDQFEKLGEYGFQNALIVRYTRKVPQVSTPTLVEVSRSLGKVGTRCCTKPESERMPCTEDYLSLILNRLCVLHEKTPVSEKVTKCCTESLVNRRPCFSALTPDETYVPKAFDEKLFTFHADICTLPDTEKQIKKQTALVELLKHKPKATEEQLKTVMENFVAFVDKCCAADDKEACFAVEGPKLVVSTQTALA
Protocol: An interaction of 8 with bovine serum albumin (BSA) resulted immediately in a white turbidity, which was subsequently removed by centrifugation (13,000 rpm for 3 min; Mini Spin, Eppendorf AG, Hamburg, Germany). The ^1H-NMR spectrum recorded on the obtained supernatant contained the signals of the released N-donor ligand, with the signal positions (e.g., C3–H signal at 6.36 ppm) being consistent with those detected for free H2Me4Claza in the same mixture of solvents (Figure S8). No signals were detected in the ^31P-NMR spectra recorded on the mentioned supernatant.
as §2

SMILES	SI = selectivity index (IC50(MRC5)/IC50(A2780)) [5]	IC50 [5]	IC50 [6]	IC50 [7]	RF = resistance factor (IC50(A2780R)/IC50(A2780)) [6]	in vitro cytotoxicity against A2780 compared with cisplatin [7]	further results
CC[PH](CC)(CC)[Au][S][C@@H]1O[C@H](COC(C)=O)[C@@H](OC(C)=O)[C@H](OC(C)=O)[C@H]1OC(C)=O [auranofin, triethylphosphane-(2,3,4,6-tetra-O-acetyl-β-D-thiopyranosato)gold(I) complex]							RF (resistance factor) [1]: ca. 0.9; sub-G1 cell cycle phase population increase [2]: > 13%; potency in vitro against A2780 cells relative to cisplatin [3]: ca. three-fold higher; cell cycle arrest [4]: G0/G1 cell cycle arrest
Brc1cnc2c(cc[n]2[Au][P](c2ccccc2)(c2ccccc2)c2ccccc2)c1 [Complex 5, [Au(5Braza)(PPh3)]]	8.4	26 ± 4.2 µM	14.4 ± 3.3 µM	3.1 ± 0.5 µM			cell cycle modification (phase arrest) [8]: G2-arrest; S cell cycle phase population [8]: 9.1% ± 2.1%; G2 cell cycle phase population [8]: 30.4% ± 2.9%; G0/G1 cell cycle phase population [8]: 58.1% ± 5.8%
Clc1c[n]([Au][P](c2ccccc2)(c2ccccc2)c2ccccc2)c2ncc(Br)cc12 [Complex 6, [Au(3Cl5Braza)(PPh3)]]	1.2	26.5 ± 3.7 µM	13.8 ± 2.1 µM	22.9 ± 2.3 µM	0.6	comparable	
Brc1cnc2c(c1)c(I)c[n]2[Au][P](c1ccccc1)(c1ccccc1)c1ccccc1 [Complex 7, [Au(3I5Braza)(PPh3)]]	1.4	27.3 ± 2.6 µM	22.1 ± 0.3 µM	20.2 ± 2.5 µM	1.1	comparable	
Ic1c[n]([Au][P](c2ccccc2)(c2ccccc2)c2ccccc2)c2ncccc12 [Complex 4, [Au(3Iaza)(PPh3)]]	8.3	29.2 ± 5.9 µM	11 ± 4.7 µM	3.5 ± 0.4 µM			
c1ccc([P]([Au][n]2ccc3cccnc32)(c2ccccc2)c2ccccc2)cc1 [Complex 1, [Au(aza)(PPh3)]]	2.0	7.7 ± 1.7 µM	4.4 ± 0.8 µM	3.8 ± 1.1 µM	1.2		cell cycle modification (phase arrest) [8]: G2-arrest; S cell cycle phase population [8]: 7.2% ± 0.9%; G2 cell cycle phase population [8]: 44.0% ± 2.3%; G0/G1 cell cycle phase population [8]: 46.0% ± 2.8%; solubility in the used medium ([9]; cell culture medium, dilution of 50 mM DMF stock): less soluble
[Cl][Au].c1ccc(P(c2ccccc2)c2ccccc2)cc1 [[AuCl(PPh3)], chlorido-triphenylphosphanegold(I) complex]							stability in DMF-d7 [10]: low stability
Brc1c[n]([Au][P](c2ccccc2)(c2ccccc2)c2ccccc2)c2ncccc12 [Complex 3, [Au(3Braza)(PPh3)]]	1.2	27.3 ± 1.7 µM	21.3 ± 0.8 µM	23.3 ± 3.4 µM	0.9	comparable	
Clc1c[n]([Au][P](c2ccccc2)(c2ccccc2)c2ccccc2)c2ncccc12 [Complex 2, [Au(3Claza)(PPh3)]]	1.4	31.4 ± 4.9 µM	21.7 ± 0.8 µM	22.4 ± 5.7 µM	1.0	comparable	
Cc1cc2c(Cl)ccnc2[n]1[Au][P](c1ccccc1)(c1ccccc1)c1ccccc1 [Complex 8, [Au(2Me4Claza)(PPh3)]]	9.6	26.9 ± 3.6 µM	8.9 ± 3.8 µM	2.8 ± 0.7 µM		more than seven times higher	solubility in water [9]: low solubility in water; hydrolytic stability [11]: hydrolytically stable; interaction with BSA [12]: replaces the N-donor ligand 2Me4Claza
N.N.[Cl][Pt][Cl] [Cisplatin, cisplatin, reference compound]		> 50 µM	> 50 µM	20.3 ± 2.3 µM			cell cycle modification (phase arrest) [8]: S-arrest; S cell cycle phase population [8]: 44.8% ± 2.9%
